Assay results taken from patent publication US20250170089A1, “ANTIMICROBIAL AMINO ESTERS” (THE HONG KONG POLYTECHNIC UNIVERSITY, priority 2023, published 2025).

How the values were obtained:
[1] = test system: Candida albicans; experiment: MIC against fungi (Candida albicans); format: cell-based
[2] = test system: methicillin-resistant Staphylococcus aureus (MRSA); experiment: MIC against methicillin-resistant Staphylococcus aureus; format: cell-based
[3] = test system: microbes; experiment: Rapid bactericidal test (shaking method, ASTM E2149 13a); format: cell-based; conditions: Ala12 diluted to 10 mg/mL with phosphate buffer, contact time 10 mins
Procedure: The Ala12 was diluted to 10 mg/mL with phosphate buffer. The shaking method (see the ASTM standard E2149 13a 2015) was used to detect their antibacterial activity, wherein the PBS group was used as a blank control. The contact time of bacteria treated with Ala12 is 10 mins.

[4] = Skin irritation according to ISO 10993-10:2010; conditions: concentration as high as 3.9 mg/mL
[5] = Skin sensitization according to ISO 10993-10:2010; conditions: concentration as high as 3.9 mg/mL
[6] = Dynamic light scattering (DLS) and zeta-potential of self-assembled nanoparticles; format: physicochemical
Description: The dynamic light scattering (DLS) and zeta-potential indicate that […] assembles into nanoparticles with an average size of around 50-200 nm (FIG. 5) and the surface potential of the generated nanoparticle can be +2.15 mV, which means the nanoparticle is positive charged and the hydrophilic -NH2 groups are probably distributed on the outer surfaces.

With `CCCCCCCCCCCCOC(=O)C(C)N` (stereo not shown) [Ala12] the MIC [1] was 390 μg/m, the MIC [2] was 390 μg/m and the “time within which the amino ester kills microbes” value [3] was ≤ 10 min. The skin irritation [4] was “completely free”, the skin sensitization [5] was “completely free” and the “surface potential of the generated nanoparticle (zeta-potential)” value [6] was “+2.15 mV”. The “average size of nanoparticles” value ([6]; DLS, FIG. 5) was 50-200 nm.
